# Where “and” joins values, the source holds several entries; their conditions need not be identical. Identical values can stand only once.
# Tests used:
# DU-145 = assay: NCI single dose (10 µM) SRB screen; assay type: cell-based, human; settings: prostate cancer, 48 h
# SK-MEL-2 = assay: NCI single dose (10 µM) SRB screen; assay type: cell-based, human; settings: melanoma, 48 h
# NCI-H522 = assay: NCI single dose (10 µM) SRB screen; assay type: cell-based, human; settings: non-small cell lung cancer, 48 h
# SF-295 = assay: NCI single dose (10 µM) SRB screen; assay type: cell-based, human; settings: CNS cancer, 48 h
# Escherichia coli = assay: Agar well diffusion method; settings: for zone of inhibition at 1000 µg/mL: Escherichia coli, 24 h, read-out: Diameter of inhibition zone, E. coli; for % activity index, E. coli: relative to ciprofloxacin
# RPMI-8226 = assay: NCI single dose (10 µM) SRB screen; assay type: cell-based, human; settings: leukaemia, 48 h
# HCC-2998 = assay: NCI single dose (10 µM) SRB screen; assay type: cell-based, human; settings: colon cancer, 48 h
# NCI-H226 = assay: NCI single dose (10 µM) SRB screen; assay type: cell-based, human; settings: non-small cell lung cancer, 48 h
# KM12 = assay: NCI single dose (10 µM) SRB screen; assay type: cell-based, human; settings: colon cancer, 48 h
# Bacillus subtilis = assay: Agar well diffusion method; settings: for zone of inhibition at 1000 µg/mL: Bacillus subtilis, 24 h, read-out: Diameter of inhibition zone, B. subtilis; for % activity index, B. subtilis: relative to ciprofloxacin
# HS578T = assay: NCI single dose (10 µM) SRB screen; assay type: cell-based, human; settings: breast cancer, 48 h
# NCI-H23 = assay: NCI single dose (10 µM) SRB screen; assay type: cell-based, human; settings: non-small cell lung cancer, 48 h
# SK-MEL-5 = assay: NCI single dose (10 µM) SRB screen; assay type: cell-based, human; settings: melanoma, 48 h
# SR = assay: NCI single dose (10 µM) SRB screen; assay type: cell-based, human; settings: leukaemia, 48 h
# NCI 60 cancer cell lines = assay: NCI single dose (10 µM) SRB screen, mean over panel; assay type: cell-based, human; settings: mean over 60 cell lines, 48 h
# MDA-MB-231 = assay: NCI single dose (10 µM) SRB screen; assay type: cell-based, human; settings: breast cancer, 48 h
# M14 = assay: NCI single dose (10 µM) SRB screen; assay type: cell-based, human; settings: melanoma, 48 h
# MCF7 = assay: NCI single dose (10 µM) SRB screen; assay type: cell-based, human; settings: breast cancer, 48 h
# U251 = assay: NCI single dose (10 µM) SRB screen; assay type: cell-based, human; settings: CNS cancer, 48 h
# MALME-3M = assay: NCI single dose (10 µM) SRB screen; assay type: cell-based, human; settings: melanoma, 48 h
# Staphylococcus aureus = assay: Agar well diffusion method; settings: for zone of inhibition at 1000 µg/mL: Staphylococcus aureus, 24 h, read-out: Diameter of inhibition zone, S. aureus; for % activity index, S. aureus: relative to ciprofloxacin
# SK-OV-3 = assay: NCI single dose (10 µM) SRB screen; assay type: cell-based, human; settings: ovarian cancer, 48 h
# A549/ATCC = assay: NCI single dose (10 µM) SRB screen; assay type: cell-based, human; settings: non-small cell lung cancer, 48 h
# NCI/ADR-RES = assay: NCI single dose (10 µM) SRB screen; assay type: cell-based, human; settings: ovarian cancer, 48 h
# HL-60(TB) = assay: NCI single dose (10 µM) SRB screen; assay type: cell-based, human; settings: leukaemia, 48 h
# BT-549 = assay: NCI single dose (10 µM) SRB screen; assay type: cell-based, human; settings: breast cancer, 48 h
# CAKI-1 = assay: NCI single dose (10 µM) SRB screen; assay type: cell-based, human; settings: renal cancer, 48 h
# CCRF-CEM = assay: NCI single dose (10 µM) SRB screen; assay type: cell-based, human; settings: leukaemia, 48 h
# SF-268 = assay: NCI single dose (10 µM) SRB screen; assay type: cell-based, human; settings: CNS cancer, 48 h
# UACC-257 = assay: NCI single dose (10 µM) SRB screen; assay type: cell-based, human; settings: melanoma, 48 h
# Candida albicans = assay: Agar well diffusion method; settings: for zone of inhibition at 1000 µg/mL: Candida albicans, 24 h, read-out: Diameter of inhibition zone, C. albicans; for % activity index, C. albicans: relative to clotrimazole
# UACC-62 = assay: NCI single dose (10 µM) SRB screen; assay type: cell-based, human; settings: melanoma, 48 h
# HT29 = assay: NCI single dose (10 µM) SRB screen; assay type: cell-based, human; settings: colon cancer, 48 h
# NCI-H322M = assay: NCI single dose (10 µM) SRB screen; assay type: cell-based; settings: non-small cell lung cancer, 48 h
# SNB-19 = assay: NCI single dose (10 µM) SRB screen; assay type: cell-based, human; settings: CNS cancer, 48 h
# TK-10 = assay: NCI single dose (10 µM) SRB screen; assay type: cell-based, human; settings: renal cancer, 48 h
# HOP-62 = assay: NCI single dose (10 µM) SRB screen; assay type: cell-based, human; settings: non-small cell lung cancer, 48 h
# HCT-15 = assay: NCI single dose (10 µM) SRB screen; assay type: cell-based, human; settings: colon cancer, 48 h
# UO-31 = assay: NCI single dose (10 µM) SRB screen; assay type: cell-based, human; settings: renal cancer, 48 h
# SW-620 = assay: NCI single dose (10 µM) SRB screen; assay type: cell-based, human; settings: colon cancer, 48 h
# COLO 205 = assay: NCI single dose (10 µM) SRB screen; assay type: cell-based, human; settings: colon cancer, 48 h
# EKVX = assay: NCI single dose (10 µM) SRB screen; assay type: cell-based, human; settings: non-small cell lung cancer, 48 h
# HOP-92 = assay: NCI single dose (10 µM) SRB screen; assay type: cell-based, human; settings: non-small cell lung cancer, 48 h
# MDA-MB-435 = assay: NCI single dose (10 µM) SRB screen; assay type: cell-based, human; settings: melanoma, 48 h
# A498 = assay: NCI single dose (10 µM) SRB screen; assay type: cell-based, human; settings: renal cancer, 48 h
# PC-3 = assay: NCI single dose (10 µM) SRB screen; assay type: cell-based, human; settings: prostate cancer, 48 h
# ACHN = assay: NCI single dose (10 µM) SRB screen; assay type: cell-based, human; settings: renal cancer, 48 h
# LOX IMVI = assay: NCI single dose (10 µM) SRB screen; assay type: cell-based, human; settings: melanoma, 48 h
# MOLT-4 = assay: NCI single dose (10 µM) SRB screen; assay type: cell-based, human; settings: leukaemia, 48 h
# MDA-MB-468 = assay: NCI single dose (10 µM) SRB screen; assay type: cell-based, human; settings: breast cancer, 48 h
# HCT-116 = assay: NCI single dose (10 µM) SRB screen; assay type: cell-based, human; settings: colon cancer, 48 h
# SNB-75 = assay: NCI single dose (10 µM) SRB screen; assay type: cell-based, human; settings: CNS cancer, 48 h
structure (smiles),measurement,setting,value
"CC1=C(C(=O)OCc2ccccc2)C(c2cccc(C#N)c2)C(C(=O)OCc2ccccc2)=C(C)N1 [Compound 1g, Dibenzyl 4-(3-cyanophenyl)-2,6-dimethyl-1,4-dihydropyridine-3,5-dicarboxylate]",GI% DU-145,DU-145,26%
same,GI% SK-MEL-2,SK-MEL-2,19%
same,GI% NCI-H522,NCI-H522,46%
same,GI% SF-295,SF-295,56%
same,zone of inhibition at 1000 µg/mL,Escherichia coli,10 mm
same,"% activity index, E. coli",Escherichia coli,38.5%
same,GI% RPMI-8226,RPMI-8226,65%
same,GI% HCC-2998,HCC-2998,– (Only GI% ≥ 10 are shown)
same,GI% NCI-H226,NCI-H226,46%
same,GI% KM12,KM12,45%
same,zone of inhibition at 1000 µg/mL,Bacillus subtilis,11 mm
same,"% activity index, B. subtilis",Bacillus subtilis,47.8%
same,GI% HS578T,HS578T,35%
same,GI% NCI-H23,NCI-H23,23%
same,GI% SK-MEL-5,SK-MEL-5,55%
same,GI% SR,SR,57%
same,Mean GI%,NCI 60 cancer cell lines,41%
same,GI% MDA-MB-231,MDA-MB-231,37%
same,GI% M14,M14,35%
same,GI% MCF7,MCF7,53%
same,GI% U251,U251,49%
same,GI% MALME-3M,MALME-3M,32%
same,zone of inhibition at 1000 µg/mL,Staphylococcus aureus,15 mm
same,"% activity index, S. aureus",Staphylococcus aureus,62.5%
same,GI% SK-OV-3,SK-OV-3,– (Only GI% ≥ 10 are shown)
same,GI% A549/ATCC,A549/ATCC,45%
same,GI% NCI/ADR-RES,NCI/ADR-RES,45%
same,GI% HL-60(TB),HL-60(TB),62%
same,GI% BT-549,BT-549,– (Only GI% ≥ 10 are shown)
same,GI% CAKI-1,CAKI-1,56%
same,GI% CCRF-CEM,CCRF-CEM,54%
same,GI% SF-268,SF-268,38%
same,GI% UACC-257,UACC-257,36%
same,zone of inhibition at 1000 µg/mL,Candida albicans,10 mm
same,"% activity index, C. albicans",Candida albicans,37%
same,GI% UACC-62,UACC-62,38%
same,GI% HT29,HT29,48%
same,GI% NCI-H322M,NCI-H322M,15%
same,GI% SNB-19,SNB-19,32%
same,GI% TK-10,TK-10,– (Only GI% ≥ 10 are shown)
same,GI% HOP-62,HOP-62,10%
same,GI% HCT-15,HCT-15,72%
same,GI% UO-31,UO-31,34%
same,GI% SW-620,SW-620,65%
same,GI% COLO 205,COLO 205,47%
same,GI% EKVX,EKVX,50%
same,GI% HOP-92,HOP-92,42%
same,GI% MDA-MB-435,MDA-MB-435,36%
same,GI% A498,A498,21%
same,GI% PC-3,PC-3,76%
same,GI% ACHN,ACHN,52%
same,GI% LOX IMVI,LOX IMVI,65%
same,GI% MOLT-4,MOLT-4,68%
same,GI% MDA-MB-468,MDA-MB-468,62%
same,GI% HCT-116,HCT-116,76%
same,GI% SNB-75,SNB-75,23%
"COC(=O)C1=C(C)NC(C)=C(C(=O)OC(C)C)C1c1cccc(C#N)c1 (racemic) [Compound 2a, (±)-3-Isopropyl 5-methyl 4-(3-cyanophenyl)-2,6-dimethyl-1,4-dihydropyridine-3,5-dicarboxylate]",GI% DU-145,DU-145,– (Only GI% ≥ 10 are shown)
same,GI% SK-MEL-2,SK-MEL-2,– (Only GI% ≥ 10 are shown)
same,GI% NCI-H522,NCI-H522,14%
same,GI% SF-295,SF-295,– (Only GI% ≥ 10 are shown)
same,zone of inhibition at 1000 µg/mL,Escherichia coli,14 mm
same,"% activity index, E. coli",Escherichia coli,53.8%
same,GI% RPMI-8226,RPMI-8226,– (Only GI% ≥ 10 are shown)
same,GI% HCC-2998,HCC-2998,– (Only GI% ≥ 10 are shown)
same,GI% NCI-H226,NCI-H226,– (Only GI% ≥ 10 are shown)
same,GI% KM12,KM12,– (Only GI% ≥ 10 are shown)
same,zone of inhibition at 1000 µg/mL,Bacillus subtilis,17 mm
same,"% activity index, B. subtilis",Bacillus subtilis,73% and 73.9%
same,GI% HS578T,HS578T,– (Only GI% ≥ 10 are shown)
same,GI% NCI-H23,NCI-H23,– (Only GI% ≥ 10 are shown)
same,GI% SK-MEL-5,SK-MEL-5,– (Only GI% ≥ 10 are shown)
same,GI% SR,SR,– (Only GI% ≥ 10 are shown)
same,Mean GI%,NCI 60 cancer cell lines,0%
same,GI% MDA-MB-231,MDA-MB-231,– (Only GI% ≥ 10 are shown)
same,GI% M14,M14,– (Only GI% ≥ 10 are shown)
same,GI% MCF7,MCF7,– (Only GI% ≥ 10 are shown)
same,GI% U251,U251,– (Only GI% ≥ 10 are shown)
same,GI% MALME-3M,MALME-3M,– (Only GI% ≥ 10 are shown)
same,zone of inhibition at 1000 µg/mL,Staphylococcus aureus,20 mm
same,"% activity index, S. aureus",Staphylococcus aureus,83% and 83.3%
same,GI% SK-OV-3,SK-OV-3,– (Only GI% ≥ 10 are shown)
same,GI% A549/ATCC,A549/ATCC,– (Only GI% ≥ 10 are shown)
same,GI% NCI/ADR-RES,NCI/ADR-RES,– (Only GI% ≥ 10 are shown)
same,GI% HL-60(TB),HL-60(TB),23%
same,GI% BT-549,BT-549,– (Only GI% ≥ 10 are shown)
same,GI% CAKI-1,CAKI-1,11%
same,GI% CCRF-CEM,CCRF-CEM,– (Only GI% ≥ 10 are shown)
same,GI% SF-268,SF-268,– (Only GI% ≥ 10 are shown)
same,GI% UACC-257,UACC-257,– (Only GI% ≥ 10 are shown)
same,zone of inhibition at 1000 µg/mL,Candida albicans,21 mm
same,"% activity index, C. albicans",Candida albicans,77% and 77.8%
same,GI% UACC-62,UACC-62,– (Only GI% ≥ 10 are shown)
same,GI% HT29,HT29,– (Only GI% ≥ 10 are shown)
same,GI% NCI-H322M,NCI-H322M,– (Only GI% ≥ 10 are shown)
same,GI% SNB-19,SNB-19,– (Only GI% ≥ 10 are shown)
same,GI% TK-10,TK-10,– (Only GI% ≥ 10 are shown)
same,GI% HOP-62,HOP-62,– (Only GI% ≥ 10 are shown)
same,GI% HCT-15,HCT-15,– (Only GI% ≥ 10 are shown)
same,GI% UO-31,UO-31,– (Only GI% ≥ 10 are shown)
same,GI% SW-620,SW-620,– (Only GI% ≥ 10 are shown)
same,GI% COLO 205,COLO 205,– (Only GI% ≥ 10 are shown)
same,GI% EKVX,EKVX,– (Only GI% ≥ 10 are shown)
same,GI% HOP-92,HOP-92,– (Only GI% ≥ 10 are shown)
same,GI% MDA-MB-435,MDA-MB-435,– (Only GI% ≥ 10 are shown)
same,GI% A498,A498,11%
same,GI% PC-3,PC-3,16%
same,GI% ACHN,ACHN,– (Only GI% ≥ 10 are shown)
same,GI% LOX IMVI,LOX IMVI,– (Only GI% ≥ 10 are shown)
same,GI% MOLT-4,MOLT-4,16%
same,GI% MDA-MB-468,MDA-MB-468,– (Only GI% ≥ 10 are shown)
same,GI% HCT-116,HCT-116,– (Only GI% ≥ 10 are shown)
same,GI% SNB-75,SNB-75,– (Only GI% ≥ 10 are shown)
